This is an account of results in US20080076740A1, “Antiviral compounds” (GILEAD SCIENCES, INC., priority 2005, published 2008).

The structures appear in SMILES notation. pEC50, pIC50: −log10 of the molar value. Read-outs that look alike come from different tables or passages of the source.

The nature of data set [1]: Caco-2 permeability. The data set is classed as in vitro ADME.
Data set [2] is described as follows: Pharmacokinetics in rat. The data set is classed as in vivo. The settings on record: for clearance: in vivo, read-out: Cl Rat (converted).
Data set [3] in a line: Pharmacokinetics in dog. The data set is classed as in vivo. The settings on record: for clearance: in vivo, read-out: Cl Dog (converted).
Data set [4] concerns HIV. Put plainly: Antiviral activity in MT-2 cells. The data set is classed as cell-based.
Data set [5] deals with Strand Transfer (Human immunodeficiency virus type 1 group M subtype B, UniProt P04585). Description: Integrase strand transfer inhibition. The data set is classed as biochemical, HIV.
Data set [6] relates to HIV. Description: Anti-HIV activity in MT4 cells. To be noted: Human immunodeficiency virus 1. The data set is classed as cell-based.
Data set [7] is described as follows: In vitro PBMC loading rate. The data set is classed as in vitro ADME. To be noted: human. From the text:
In one embodiment, the invention is provides compounds capable of accumulating in human PBMC (peripheral blood mononuclear cells). PBMC refer to blood cells having round lymphocytes and monocytes. Physiologically, PBMC are critical components of the mechanism against infection. PBMC may be isolated from heparinized whole blood of normal healthy donors or buffy coats, by standard density gradient centrifugation and harvested from the interface, washed (e.g. phosphate-buffered saline) and stored in freezing medium. PBMC may be cultured in multi-well plates. At various times of culture, supernatant may be either removed for assessment, or cells may be harvested and analyzed (Smith R. etal (2003) Blood 102(7):2532-2540). The compounds of this embodiment may further comprise a phosphonate or phosphonate prodrug. More typically, the phosphonate or phosphonate prodrug can have the structure A^3 as described herein.

Data set [8] in a line: Cytotoxicity in MT4 cells. The settings on record: human.
Data set [9] can be described thus: Hepatocyte stability, dog. To be noted: hepatocytes.
Data set [10] in a line: Hepatocyte stability, human. To be noted: hepatocytes.
A short description of data set [11]: Phosphonate prodrugs in vivo summary (pharmacokinetics). To be noted: species not given.
Data set [12] is described as follows: in vitro. To be noted: human.
[13] abbreviates: human, Caco-2 studies, read-out: Papp.

In the case of `O=C(NCc1ccccn1)c1c2c(c(O)c3ncccc13)C(=O)N(Cc1ccc(F)cc1)C2` [Compound 2001], the Papp in data set [1] (setting [13]) was found to be 5 ×10⁻⁶ cm/s. Further, in data set [2], the “F Rat” value is on record as 2%, the “Vdb Rat” value is recorded as 8.2 L/kg and the clearance is 183 mL/min/kg. Besides, in [3], the “F Dog” value is given as 28%, the “Vdb Dog” value was 0.8 L/kg and the clearance was 1.17 mL/min/kg.
`CCOC(=O)[C@H](C)NP(=O)(CCN(C)C(=O)c1c2c(c(O)c3ncccc13)C(=O)N(Cc1ccc(F)cc1)C2)OCC(F)(F)F` (some centres unmarked) [Compound 2018] gave a negative-log EC50 (pEC50) in data set [4] of 10.00.
For the compound `CCOC(=O)[C@H](C)OP(=O)(CCN1CCN(C(=O)Oc2c3c(c(O)c4ncccc24)C(=O)N(Cc2ccc(F)cc2)C3)CC1)Oc1ccccc1` (some centres unmarked) [Compound 2005], the negative-log IC50 (pIC50) in data set [5] was greater than 5.92. This compound gave a pEC50 in [6] greater than 7.70. Further, the “In vitro PBMC Loading Rate” value in [7] was found to be 5291 nM/h. In addition, the CC50 in data set [8] was less than 5000 nM. In addition, the half-life in [9] was 1.07 h. In data set [10], this compound showed a half-life of 1.65 h. In data set [11], the “(head line blank)” value is 60 mL/min/kg, the F was determined as 3% and the Vdβ worked out at 10.8 L/kg.
As for `CCOC(=O)[C@H](C)NP(=O)(CCN(C)C(=O)c1c2c(c(O)c3ncccc13)C(=O)N(Cc1ccc(F)cc1)C2)OCC(F)(F)F` (some centres unmarked) [Compound 2017], the pEC50 in [4] was 9.00.
Turning to `CCOC(=O)[C@H](C)NP(=O)(CCCNC(=O)c1c2c(c(O)c3ncccc13)C(=O)N(Cc1ccc(F)cc1)C2)Oc1ccccc1` (some centres unmarked) [Compound 2016], in [11], the “(head line blank)” value was found to be 6.7 mL/min/kg and the Vdβ was 0.7 L/kh.
For the compound `CCOC(=O)[C@H](C)NP(=O)(CO[C@H](C)CNC(=O)c1c2c(c(O)c3ncccc13)C(=O)N(Cc1ccc(F)cc1)C2)Oc1ccccc1` (some centres unmarked) [Compound 2013], the “In vitro PBMC Loading Rate” value in [7] was determined as 5774 nM/h. Further, the apparent permeability (Papp) entry in data set [1] (Caco-2) is listed as “BQL”. This compound gave a half-life in data set [9] of 0.883 h. The compound further gave a half-life in data set [10] of 1.33 h. Also, in data set [11], the “(head line blank)” value is 15 mL/min/kg and the Vdβ was 4 L/kg.
In turn, `COP(=O)(CCN1CCN(C(=O)Oc2c3c(c(O)c4ncccc24)C(=O)N(Cc2ccc(F)cc2)C3)CC1)OC` [Compound 2004] had a pIC50 in data set [5] greater than 6.22. In data set [6], this compound had a negative logarithm of the EC50 (pEC50) greater than 7.70. In data set [8], this compound returned a CC50 of less than 5000 nM.
As to `CCOC(=O)[C@H](C)NP(=O)(CCN1CCN(C(=O)c2c3c(c(O)c4ncccc24)C(=O)N(Cc2ccc(F)cc2)C3)CC1)Oc1ccccc1` (some centres unmarked) [Compound 2015], in data set [11], the “(head line blank)” value is 13 mL/min/kg and the Vdβ worked out at 0.8 L/kh.
`CCOC(=O)C(C)NP(=O)(CCN(C)C(=O)c1c2c(c(O)c3ncccc13)C(=O)N(Cc1ccc(F)cc1)C2)Oc1ccccc1` (centres unmarked) [Compound 2008]: the “In vitro PBMC Loading Rate” value in [7] was 19551 nM/h. In data set [1] (human, Caco-2, read-out: Papp), the apparent permeability (Papp) worked out at 0.1 ×10⁻⁶ cm/s. This compound also displayed a half-life in [9] of 0.733 h. Also, the half-life in data set [10] amounted to 1.95 h. For the same compound, in [11], the “(head line blank)” value came out at 15 mL/min/kg, the F was 0.5% and the Vdβ stood at 1.8 L/kg.
For `CCOC(=O)[C@H](C)OP(=O)(CCN1CCN(C(=O)c2c3c(c(O)c4ncccc24)C(=O)N(Cc2ccc(F)cc2)C3)CC1)Oc1ccccc1` (some centres unmarked) [Compound 2011], in data set [7], the “In vitro PBMC Loading Rate” value is 4810 nM/h. Moreover, the half-life in data set [9] amounted to 0.733 h. In data set [10], this compound had a half-life of 1.4 h. Moreover, in data set [11], the “(head line blank)” value was 76.7 mL/min/kg, the F worked out at 0.3% and the Vdβ was found to be 9.1 L/kg.
On to `CCOP(=O)(COc1c2c(c(O)c3ncccc13)C(=O)N(Cc1ccc(F)cc1)C2)OCC` [Compound 2002], for which, in data set [5] (read-out: IC50 Strand Transfer), the pIC50 was greater than 6.22. This compound gave a negative-log EC50 (pEC50) in data set [6] greater than 7.70. The CC50 in data set [12] is less than 5000 nM.
With `CCOP(=O)(CN1CCN(C(=O)Oc2c3c(c(O)c4ncccc24)C(=O)N(Cc2ccc(F)cc2)C3)CC1)OCC` [Compound 2003], in data set [5], the negative-log IC50 (pIC50) was greater than 6.22. In [6], this compound showed a negative logarithm of the EC50 (pEC50) greater than 7.70. Moreover, the CC50 in [8] is less than 5000 nM.
Consider `CCOC(=O)[C@H](C)NP(=O)(CCCN(C)C(=O)c1c2c(c(O)c3ncccc13)C(=O)N(Cc1ccc(F)cc1)C2)Oc1ccccc1` (some centres unmarked) [Compound 2012], for which the “In vitro PBMC Loading Rate” value in data set [7] is listed as 4831 nM/h. Besides, the Papp result in data set [1] (Caco-2) was “BQL”. In data set [9], this compound had a half-life of 0.767 h. In addition, the half-life in data set [10] worked out at 2.57 h. Moreover, in data set [11], the “(head line blank)” value stood at 12 mL/min/kg, the F stood at 0.2% and the Vdβ is 0.7 L/kh.
As for `CCOC(=O)[C@H](C)NP(=O)(CCN(C)C(=O)c1c2c(c(O)c3ncccc13)C(=O)N(Cc1ccc(F)cc1)C2)OCC(F)(F)F` (some centres unmarked) [Compound 2009], the Papp in data set [1] (human, Caco-2, read-out: Papp) was in the range of 1 to 4 ×10⁻⁶ cm/s. In data set [9], the half-life worked out at 1.22 h. In addition, in [11], the “(head line blank)” value came out at 43.3 mL/min/kg, the F was determined as 7% and the Vdβ stood at 3 L/kg.
As to `CCOP(=O)(CNC(=O)CCSC1c2c(c(O)c3ncccc3c2OC)C(=O)N1Cc1ccc(F)cc1)OCC` (centres unmarked) [Compound 2021], the pIC50 in data set [5] (read-out: IC50 Strand Transfer) was greater than 5.92. The same compound had a pEC50 in data set [6] greater than 6.30. In addition, in data set [12], the CC50 was less than 50000 nM.
As for `CCOC(=O)[C@H](C)NP(=O)(CCNC(=O)c1c2c(c(O)c3ncccc13)C(=O)N(Cc1ccc(F)cc1)C2)Oc1ccccc1` (some centres unmarked) [Compound 2006], in data set [7], the “In vitro PBMC Loading Rate” value is on record as 7830 nM/h. The compound also came in with a half-life in data set [9] of 1.73 h. The compound further displayed a half-life in data set [10] of 1.63 h. In data set [11], the “(head line blank)” value was found to be 15 mL/min/kg, the F entry is on record as “BLQ” and the Vdβ is 0.7 L/kh.
For `CCOC(=O)[C@H](C)NP(=O)(CCNC(=O)c1c2c(c(O)c3ncccc13)C(=O)N(Cc1ccc(F)cc1)C2)N[C@@H](C)C(=O)OCC` [Compound 2007], the Papp result in data set [1] (Caco-2) is given as “BQL”. Further, the half-life in data set [9] was determined as 3.23 h. In addition, in [10], the half-life is 2.65 h. In [11], the “(head line blank)” value is 58.3 mL/min/kg and the Vdβ is 4 L/kg.
`CCOC(=O)[C@H](C)OP(=O)(CCNC(=O)c1c2c(c(O)c3ncccc13)C(=O)N(Cc1ccc(F)cc1)C2)Oc1ccccc1` (some centres unmarked) [Compound 2014]: in data set [11], the “(head line blank)” value stood at 16.7 mL/min/kg, the F amounted to 0.04% and the Vdβ is 1.1 L/kg.
`O=C(NCc1ccc(F)cc1)c1nc(N2CCCCS2(=O)=O)c2cccnc2c1O` [Compound L-870810, reference compound]: the Papp in data set [1] (setting [13]) was 40 ×10⁻⁶ cm/s. In [2], the “F Rat” value was determined as 42%, the “Vdb Rat” value stood at 0.72 L/kg and the clearance is 1.5 mL/min/kg. Further, in data set [3], the “F Dog” value was 50%, the “Vdb Dog” value was 0.5 L/kg and the clearance was 1.17 mL/min/kg.

For orientation: Papp means a coefficient for how fast a substance crosses the barrier. Usually pEC50 stands for the negative decadic logarithm of the EC50, by convention in mol/L. Low readings indicate a large EC50, high ones a small EC50. As usually defined, the pIC50 is the IC50 on a negative log10 scale, so that one unit is a factor of ten. In general, half-life refers to how long it takes for the measured level to halve. A low value points to fast loss.
